Consider 6 compounds from US9066861B2 (priority 2009, dated 2015).

The series is described as follows: Assay (%) test of APIs in cream, stability study, HPLC method. The series is classed as physicochemical. The method, then: The stability of the product is confirmed by the stability studies performed for 3/6 months as per ICH guidelines.
APIs-stability experiments were carried out (see tables 3-20) using several products that are representative of the present invention. Tests were carried out to observe (or measure as appropriate) the physical appearance of the product, the pH value and assay of the APIs over a period of time. […] Betamethasone Valerate—0.12% (w/w) • ii. Fluticasone Propionate—0.05% (w/w) • iii. Mometasone Furoate—0.1% (w/w) • iv. Dexamethasone Acetate—0.1% (w/w) • v. Hydrocortisone Acetate—1.0% (w/w) • vi. Clobetasol Propionate—0.05% (w/w) • vii. Beclomethasone Dipropionate—0.025% (w/w) • viii. Betamethasone Dipropionate—0.05% (w/w) wherein all percentages are with respect to the final formulation.
The product used for the Stability Studies tests contained approximately 10% extra APIs (overages).

With `CCC(=O)OCC(=O)[C@@]1(OC(=O)CC)[C@@H](C)C[C@H]2[C@@H]3CCC4=CC(=O)C=C[C@]4(C)[C@@]3(Cl)[C@@H](O)C[C@@]21C` [Beclomethasone dipropionate], the “Assay (%)” value came out at 108.05% (in cream Batch No. SFB-01, 25° C. 60% RH, 1st Month); 108.00% (in cream Batch No. SFB-01, 25° C. 60% RH, 2nd Month); 107.90% (in cream Batch No. SFB-01, 25° C. 60% RH, 3rd Month); 108.11% (in cream Batch No. SFB-01, 30° C. 65% RH, 1st Month); 107.96% (in cream Batch No. SFB-01, 30° C. 65% RH, 2nd Month); 107.68% (in cream Batch No. SFB-01, 30° C. 65% RH, 3rd Month). Also, the “Assay (%)” value (in cream Batch No. SFB-01, 40° C. 75% RH, 1st Month) stood at 108.04%; the “Assay (%)” value (in cream Batch No. SFB-01, 40° C. 75% RH, 2nd Month) is on record as 107.98%; the “Assay (%)” value (in cream Batch No. SFB-01, 40° C. 75% RH, 3rd Month) is 107.88%; the “Assay (%)” value (in cream Batch No. SFB-01, Freezthaw, 1st Month) is 107.58%; the “Assay (%)” value (in cream Batch No. SFB-01, Initial) was determined as 108.12%; the “Assay (%)” value (in cream Batch No. SFB-01, Temperature cycling, 1st Month) is listed as 107.68%.
On to `CCCCC(=O)O[C@]1(C(=O)CO)[C@@H](C)C[C@H]2[C@@H]3CCC4=CC(=O)C=C[C@]4(C)[C@@]3(F)[C@@H](O)C[C@@]21C` [Betamethasone Valerate], for which the “Assay (%)” value (in cream Batch No. SBV-01, 25° C. 60% RH, 1st Month) stood at 109.54%; the “Assay (%)” value (in cream Batch No. SBV-01, 25° C. 60% RH, 2nd Month) came out at 109.42%; the “Assay (%)” value (in cream Batch No. SBV-01, 25° C. 60% RH, 3rd Month) was 109.21%; the “Assay (%)” value (in cream Batch No. SBV-01, 30° C. 65% RH, 1st Month) came out at 109.48%; the “Assay (%)” value (in cream Batch No. SBV-01, 30° C. 65% RH, 2nd Month) was 109.42%; the “Assay (%)” value (in cream Batch No. SBV-01, 30° C. 65% RH, 3rd Month) stood at 109.20%. Besides, the “Assay (%)” value (in cream Batch No. SBV-01, 40° C. 75% RH, 1st Month) is on record as 109.51%; the “Assay (%)” value (in cream Batch No. SBV-01, 40° C. 75% RH, 2nd Month) worked out at 109.32%; the “Assay (%)” value (in cream Batch No. SBV-01, 40° C. 75% RH, 3rd Month) turned out to be 109.11%; the “Assay (%)” value (in cream Batch No. SBV-01, Freezthaw, 1st Month) worked out at 108.25%; the “Assay (%)” value (in cream Batch No. SBV-01, Initial) turned out to be 109.56%; the “Assay (%)” value (in cream Batch No. SBV-01, Temperature cycling, 1st Month) was determined as 109.51%.
Consider `CCC(=O)O[C@]1(C(=O)CCl)[C@@H](C)C[C@H]2[C@@H]3CCC4=CC(=O)C=C[C@]4(C)[C@@]3(F)[C@@H](O)C[C@@]21C` [Clobetasol Propionate], for which the “Assay (%)” value (in cream Batch No. SPC-01, 25° C. 60% RH, 1st Month) is given as 107.40%; the “Assay (%)” value (in cream Batch No. SPC-01, 25° C. 60% RH, 2nd Month) turned out to be 107.34%; the “Assay (%)” value (in cream Batch No. SPC-01, 25° C. 60% RH, 3rd Month) was determined as 107.30%; the “Assay (%)” value (in cream Batch No. SPC-01, 25° C. 60% RH, 6th Month) is recorded as 107.24%; the “Assay (%)” value (in cream Batch No. SPC-01, 30° C. 65% RH, 1st Month) is on record as 107.38%; the “Assay (%)” value (in cream Batch No. SPC-01, 30° C. 65% RH, 2nd Month) was 107.32%. The “Assay (%)” value by setting is: (in cream Batch No. SPC-01, 30° C. 65% RH, 3rd Month) 107.29%; (in cream Batch No. SPC-01, 30° C. 65% RH, 6th Month) 107.22%; (in cream Batch No. SPC-01, 40° C. 75% RH, 1st Month) 107.34%; (in cream Batch No. SPC-01, 40° C. 75% RH, 2nd Month) 107.22%; (in cream Batch No. SPC-01, 40° C. 75% RH, 3rd Month) 107.15%; (in cream Batch No. SPC-01, 40° C. 75% RH, 6th Month) 107.10%. Also, the “Assay (%)” value runs as follows: (in cream Batch No. SPC-01, Freezthaw, 1st Month) 107.11%; (in cream Batch No. SPC-01, Initial) 107.41%; (in cream Batch No. SPC-01, Temperature cycling, 1st Month) 107.21%.
For `CCC(=O)O[C@]1(C(=O)SCF)[C@H](C)C[C@H]2[C@@H]3C[C@H](F)C4=CC(=O)C=C[C@]4(C)[C@@]3(F)[C@@H](O)C[C@@]21C` [Fluticasone Propionate], the “Assay (%)” value is, setting by setting: (in cream Batch No. SFC-01, 25° C. 60% RH, 1st Month) 108.54%; (in cream Batch No. SFC-01, 25° C. 60% RH, 2nd Month) 108.42%; (in cream Batch No. SFC-01, 25° C. 60% RH, 3rd Month) 108.21%; (in cream Batch No. SFC-01, 25° C. 60% RH, 6th Month) 108.10%; (in cream Batch No. SFC-01, 30° C. 65% RH, 1st Month) 108.48%; (in cream Batch No. SFC-01, 30° C. 65% RH, 2nd Month) 108.42%. Moreover, the “Assay (%)” value was found to be 108.20% (in cream Batch No. SFC-01, 30° C. 65% RH, 3rd Month); 108.11% (in cream Batch No. SFC-01, 30° C. 65% RH, 6th Month); 108.51% (in cream Batch No. SFC-01, 40° C. 75% RH, 1st Month); 108.32% (in cream Batch No. SFC-01, 40° C. 75% RH, 2nd Month); 108.11% (in cream Batch No. SFC-01, 40° C. 75% RH, 3rd Month); 108.08% (in cream Batch No. SFC-01, 40° C. 75% RH, 6th Month). Besides, the “Assay (%)” value runs as follows: (in cream Batch No. SFC-01, Freezthaw, 1st Month) 108.15%; (in cream Batch No. SFC-01, Initial) 108.56%; (in cream Batch No. SFC-01, Temperature cycling, 1st Month) 108.51%.
`CC(=O)OCC(=O)[C@@]1(O)CC[C@H]2[C@@H]3CCC4=CC(=O)CC[C@]4(C)[C@H]3[C@@H](O)C[C@@]21C` [Hydrocortisone Acetate]: the “Assay (%)” value is, setting by setting: (in cream Batch No. HAS-01, 25° C. 60% RH, 1st Month) 107.14%; (in cream Batch No. HAS-01, 25° C. 60% RH, 2nd Month) 107.11%; (in cream Batch No. HAS-01, 25° C. 60% RH, 3rd Month) 107.10%; (in cream Batch No. HAS-01, 30° C. 65% RH, 1st Month) 107.14%; (in cream Batch No. HAS-01, 30° C. 65% RH, 2nd Month) 107.12%; (in cream Batch No. HAS-01, 30° C. 65% RH, 3rd Month) 107.09%. Moreover, the “Assay (%)” value reads like this: (in cream Batch No. HAS-01, 40° C. 75% RH, 1st Month) 107.14%; (in cream Batch No. HAS-01, 40° C. 75% RH, 2nd Month) 107.12%; (in cream Batch No. HAS-01, 40° C. 75% RH, 3rd Month) 107.05%; (in cream Batch No. HAS-01, Freezthaw, 1st Month) 107.14%; (in cream Batch No. HAS-01, Initial) 107.15%; (in cream Batch No. HAS-01, Temperature cycling, 1st Month) 107.11%.
For `C[C@@H]1C[C@H]2[C@@H]3CCC4=CC(=O)C=C[C@]4(C)[C@@]3(Cl)[C@@H](O)C[C@]2(C)[C@@]1(OC(=O)c1ccco1)C(=O)CCl` [Mometasone Furoate], the “Assay (%)” value by setting is: (in cream Batch No. SFM-01, 25° C. 60% RH, 1st Month) 108.54%; (in cream Batch No. SFM-01, 25° C. 60% RH, 2nd Month) 108.42%; (in cream Batch No. SFM-01, 25° C. 60% RH, 3rd Month) 108.21%; (in cream Batch No. SFM-01, 25° C. 60% RH, 6th Month) 107.82%; (in cream Batch No. SFM-01, 30° C. 65% RH, 1st Month) 108.48%; (in cream Batch No. SFM-01, 30° C. 65% RH, 2nd Month) 108.42%. In addition, the “Assay (%)” value reads like this: (in cream Batch No. SFM-01, 30° C. 65% RH, 3rd Month) 108.20%; (in cream Batch No. SFM-01, 30° C. 65% RH, 6th Month) 107.75%; (in cream Batch No. SFM-01, 40° C. 75% RH, 1st Month) 108.51%; (in cream Batch No. SFM-01, 40° C. 75% RH, 2nd Month) 108.32%; (in cream Batch No. SFM-01, 40° C. 75% RH, 3rd Month) 108.11%; (in cream Batch No. SFM-01, 40° C. 75% RH, 6th Month) 107.88%. Moreover, the “Assay (%)” value (in cream Batch No. SFM-01, Freezthaw, 1st Month) stood at 108.15%; the “Assay (%)” value (in cream Batch No. SFM-01, Initial) worked out at 108.56%; the “Assay (%)” value (in cream Batch No. SFM-01, Temperature cycling, 1st Month) turned out to be 108.51%.
